The values below come from paper PMC9061853, “Luminescent bis(benzo[d]thiazolyl)quinoxaline: facile synthesis, nucleic acid and protein BSA interaction, live-cell imaging, biopharmaceutical research and cancer theranostic application” (RSC Advances, 2019).

Series [1] is described as follows: Buffer stability (LC-MS/MS). It counts as physicochemical. The note with it: pH 7.4 buffer, read-out: % Remaining in 120 min. The procedure:
LC-MS/MS methods were developed for compound 7g to quantify the drug concentration and in vitro study (i.e. buffer solubility, buffer stability, metabolic stability, and permeability) in a systemic manner (Table 4). Chromatographic elution conditions were set with the use of 5 mM ammonium formate containing 0.1% formic acid and acetonitrile containing 0.1% formic acid with C8, Kromasil, and 4.6 × […] as a stationary phase (Fig. S5a and b ^†). […] For the data analysis, % accuracy of compound 7g was calculated and it was soluble up to 25 μM (Fig. 3, eqn (7) ^†).
The in vitro solubility and stability of 7g were evaluated in pH 7.4 buffer. The buffer solubility and stability studies were conducted at six different concentrations ranging from 3.13 to 100 μM. For the data analysis, % stability of compound 7g at 120 min was calculated with respect to 0 min time point samples and it was stable up to 2 hours in pH 7.4 buffers. Data analysis was performed through the eqn (8) ^† and was tabulated (Table 4). Compound 7g found to be stable up to 2 hours with % remaining of 71% in pH 7.4.

Series [2] can be described thus: Metabolic stability in rat liver microsomes. It counts as in vitro ADME. To be noted: for % Metabolism in 30 min: 0.5 μM, 0.5 mg ml^−1 protein, NADPH, 37 °C; for half-life at 0.5 μM: rat, liver microsomes. The procedure:
(§1) The in vitro metabolic rate of 7g was determined in liver microsomes and the intrinsic clearance (CLintr) was estimated. The study was conducted at 0.5 μM substrate concentration and microsomal protein concentration of 0.5 mg ml^−1. Metabolic stability study in the presence of microsomes and cofactor NADPH was performed at 37 °C, 60 rpm for 30 min time duration. NADPH free control incubation was performed simultaneously for 30 min to understand if there are any non-enzymatic metabolism related issues. […] Intrinsic clearance as given in Table 6, was calculated using eqn (8). ^†
In general terms: Microsomes from liver hold many membrane-bound enzymes, among them those of drug oxidation.

A short description of series [3]: Metabolic stability in mouse liver microsomes. It counts as in vitro ADME. To be noted: for % Metabolism in 30 min: 0.5 μM, 0.5 mg ml^−1 protein, NADPH, 37 °C; for half-life at 0.5 μM: mouse, liver microsomes. The protocol:
as §1

Series [4] is described as follows: Stability in water, GSH and MTT condition by UV-vis spectroscopy. It counts as physicochemical. The protocol:
The stability of compounds in water, GSH, and MTT condition (10% DMSO in PBS buffer) was studied. Water is a key factor because it widens the application in the biological field. […] The stability of complex 7e in water (pH 7.2) and GSH were investigated by UV-vis spectroscopy over a period of 20 h of time (Fig. S2a and b ^†).

The target of the next series is T1, BSA (Bos taurus, UniProt P02769).
T1 construct: purchased Himedia Chemical Limited
T1 sequence (P02769 25-607): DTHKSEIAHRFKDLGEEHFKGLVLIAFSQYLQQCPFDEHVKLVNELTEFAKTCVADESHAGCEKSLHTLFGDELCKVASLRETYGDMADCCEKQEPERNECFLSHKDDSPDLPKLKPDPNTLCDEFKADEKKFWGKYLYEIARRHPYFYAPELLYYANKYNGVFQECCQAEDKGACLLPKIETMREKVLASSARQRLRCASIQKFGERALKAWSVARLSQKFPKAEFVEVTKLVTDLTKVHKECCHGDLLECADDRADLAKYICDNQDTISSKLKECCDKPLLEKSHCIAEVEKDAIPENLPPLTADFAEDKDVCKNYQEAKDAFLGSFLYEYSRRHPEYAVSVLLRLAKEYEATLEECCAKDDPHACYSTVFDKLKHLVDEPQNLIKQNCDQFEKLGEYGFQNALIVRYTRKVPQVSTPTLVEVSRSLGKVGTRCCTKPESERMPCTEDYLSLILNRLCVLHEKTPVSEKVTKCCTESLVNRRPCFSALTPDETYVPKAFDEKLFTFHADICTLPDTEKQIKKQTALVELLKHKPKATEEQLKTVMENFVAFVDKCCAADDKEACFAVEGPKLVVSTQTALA
Nature of the series: BSA binding study (tryptophan emission quenching). Further details: species or system bovine. The protocol: Serum albumin has the capacity to bind with the ligands and helps in the uptake of the drug inside the cells. BSA is commonly used in this study because of its similar structural homology to HSA. […] A significant quenching of BSA fluorescence can be observed upon interaction with drug molecule.[27] The BSA solution of 3 μM concentration was titrated against 10–100 μM of the drug 7e upon excitation of 280 nm. […] The Stern–Volmer constant (KBSA), quenching constant (Kq), binding constant (K), a number of binding sites (n) were calculated from the eqn (5) and (6) (Fig. S4b and c ^†). The Kq values of the newly synthesized compounds were in the order of 10^12 M^−1 s^−1 which were higher enough than maximum scatter collision quenching constant (2.0 × 10^10 M^−1 s^−1) of BSA quenchers (Table 2).[28] High potency of these complexes in cancer cells may be attributed by the strong binding with serum albumin which overcomes the drug resistance by GSH. […]
BSA is a carrier protein that increases solubility of the drug in the blood by binding to it.
Fluorescence spectroscopy is an efficient method to study the interaction of the BSA with the compound by quenching mechanism. The binding of the complexes to the bovine serum albumin (BSA) were measured by tryptophan emission quenching study. The complex […]
solutions (0-60 μM) were gradually added to the solution of BSA (2 μM) in 5 mM Tris- […]
HCl/NaCl buffer (pH 7.2) and the quenching of the emission signals at 350 nm (λex = 295 […]
nm) were recorded. The emission intensity of BSA decreases gradually on increasing the […]
complex concentration. The quenching constant (KBSA) has been determined quantitatively by […]
using Stern-Volmer equation. Stern-Volmer plots of I0/I vs. [complex] were made using the […]
corrected fluorescence data taking into account the effect of dilution. Linear fit of the data […]
Where I0 and I are the emission intensities of BSA in the absence and in the presence of […]
quencher of concentration [Q], gave the quenching constant (K BSA) using Origin Pro 8.5 […]
software. kq is the quenching rate constant, τ0 is the average lifetime of the tryptophan in BSA […]
without quencher reported as 1 x 10-8 sec. The binding propensity of the quenchers with […]
respective serum proteins were expressed by Scatchard equation. For such static quenching […]
interaction, the binding constant (K) and the number of binding sites (n) can be determined […]
according to the Scatchard equation: […]
The linear fitting of the log (I0-I)/I vs. log [Q] plot gives values of n and K from slope and […]
2.8. Stability study, Solubility study, metabolic stability study, Caco-2 permeability study
%Nominal = Mean of calculated concentration of test samples ×100 ….(7) […]
Calculated concentration from calibration curve
CL = k × volume of reaction mixture (mL) … (8) […]
intr protein content (mg)

As a reminder, the half-life is the time in which the quantity being followed falls by half. The low end stands for rapid decline, the high end for slow decline. For `COc1ccc2nc(COc3ccccc3-c3nc4ccccc4s3)c(COc3ccccc3-c3nc4ccccc4s3)nc2c1` [Compound 7g, 2,2'-((((6-methoxyquinoxaline-2,3-diyl)bis(methylene))bis(oxy))bis(2,1-phenylene))bis(benzo[d]thiazole)], in series [1] (3.13 μM), the share remaining at 2 h, 3.13 μM is 59%. In addition, in series [1] (6.25 μM), the amount remaining at 2 h, 6.25 μM worked out at 68%. For the same molecule, the share remaining at 2 h, 12.5 μM in series [1] (12.50 μM) was determined as 81%. Further, the amount remaining at 2 h, 25 μM in series [1] (25.00 μM) came out at 110%. In series [1] (50.00 μM), the fraction remaining at 2 h, 50 μM came to 110%. The fraction remaining at 2 h, 100 μM in series [1] (100.00 μM) was determined as 71%. Further, the CLint in series [2] (RLM set 1) is given as 4 μl per min per mg protein; in series [2] (RLM set 2), 14 μl per min per mg protein; in series [3] (MLM set 1) it was 13 μl per min per mg protein; in series [3] (MLM set 2), 28 μl per min per mg protein. The “% Metabolism in 30 min” value in series [2] (RLM set 1) came out at 12%; in series [2] (RLM set 2), 19%; in series [3] (MLM set 1), 12%; in series [3] (MLM set 2), 37%. For the same molecule, the half-life at 0.5 μM in series [2] (RLM set 1) came to 5.85 h; in series [2] (RLM set 2), 1.69 h; in series [3] (MLM set 1), 1.83 h; in series [3] (MLM set 2), 0.818 h.
Turning to `Clc1cc2nc(COc3ccccc3-c3nc4ccccc4s3)c(COc3ccccc3-c3nc4ccccc4s3)nc2cc1Cl` [Compound 7e], in series [4] (10% DMSO in PBS buffer, 18 h), the “stability in MTT condition” value is listed as “insignificant change of absorbance”. Besides, the “stability in GSH” value in series [4] (GSH, 20 h) is recorded as “no changes in absorbance”. The stability in water result in series [4] (water pH 7.2, 20 h) is reported as “no changes in absorbance”. Besides, on BSA, the “K BSA, Stern–Volmer quenching constant” value came out at 10200 M⁻¹ and the “K q, quenching rate constant” value is 1.02e+12 M⁻¹ s⁻¹. Moreover, on BSA (BSA 3 μM titrated with 10–100 μM drug, excitation 280 nm), the “quenching of BSA fluorescence” value was “more than 50%”. Besides, the “n, number of binding sites” value on BSA (Scatchard equation) was 1.87. The Kd at BSA (Scatchard equation, read-out: K, binding constant with BSA (converted)) is 3.82 mM.
